In patent publication US5741669A, “Insecticidally effective peptides” (FMC Corporation, priority 1995, dated 1998):

B1: NPS-373 (protein)
chain: MKLQLMICLVLLPCFFCEPDEICRARMTNKEFTYKSNVCNGCGDQVAACEAECFRNDVYTACHEAQKG

Experiments:
[1] = test system: beet armyworm, Spodoptera exigua (BAW); assay: Injection bioassay of whole venom and purified toxins in BAW larvae; format: in vivo; details: S. exigua (BAW), estimate based on 50% mortality at this dose, all other responses 0% or 100%
Excerpt: (§1) The insects tested were last instar, laboratory reared larvae of the tobacco budworm, Heliothis virescens (TBW); the beet armyworm, Spodoptera exigua (BAW); the cabbage looper,Trichoplusia ni (CL); the corn earworm, Heliothis (Helicoverpa) zea (CEW); the fall armyworm, Spodoptera frugiperda (FAW); the soybean looper, Pseudoplusia includens (SBL); the European corn borer, Ostrinia nubilalis (ECB); and the diamondback moth, Plutella xylostella (DBM). Adult house flies, Musca domestica (HF) and adult Southern corn rootworm beetles, Diabrotica undecimpunctata (SRC) were also tested. The first six species (TBW, BAW, CL, CEW, FAW, and SBL) are in the family Noctuidae of the order Lepidoptera. O. nubilalis and P. xylostella are lepidopterans in the families Pyralidae and Plutellidae, respectively. […] Whole venom doses were calculated in terms of WVE. […] Doses of components from early fractionations were also calculated in terms of WVE; doses of purified toxins were calculated from ultraviolet absorbances at 280 nm. […]
(§2) Full dose-response assays were carried out in TBW (n=6), BAW (n=6), CL (n=6) and SCR (n=5). […] LD50 values were determined by log-probit analysis basic program for microcomputer. […] Because probit analysis requires two responses that are neither zero nor 100 percent, […] values in several cases had to be estimated rather than calculated directly. […]

[2] = test system: European corn borer, Ostrinia nubilalis (ECB); assay: Two-dose injection assay of toxins in ECB larvae; format: in vivo
Excerpt: as §1, §2

male Swiss-Webster mice = assay: Mammalian toxicity test by injection in mice; format: in vivo; details: 30 μg, male Swiss-Webster mice (~30 gm)
Protocol: (§3) Injection of 30 μg of NPS-326 into the cerebral ventricles (n=3) or peritoneum (n=2) of male Swiss-Webster mice (~30 gm) had no effect. The effects of NPS-331 in mammalian systems were further tested by in vitro rat brain slice electrophysiology. […] The assay is capable of detecting a variety of effects on various mammalian ion channels and neurotransmitter receptors (Dunwiddie, in Electrophysiological Techniques in Pharmacology, Alan R. Liss, Inc., New York (1986), pp. 65-90).

[3] = test system: soybean looper, Pseudoplusia includens (SBL); assay: Two-dose injection assay of toxins in SBL larvae; format: in vivo
Excerpt: as §1, §2

[4] = test system: fall armyworm, Spodoptera frugiperda (FAW); assay: Two-dose injection assay of toxins in FAW larvae; format: in vivo
Excerpt: as §1, §2

[5] = test system: Southern corn rootworm beetles, Diabrotica undecimpunctata (SCR); assay: Injection bioassay of toxins in adult Southern corn rootworm beetles; format: in vivo; details: D. undecimpunctata (SCR), NPS-326 value estimated (highest dose 100% mortality, rest none)
Excerpt: as §1, §2

[6] = test system: corn earworm, Heliothis (Helicoverpa) zea (CEW); assay: Two-dose injection assay of toxins in CEW larvae; format: in vivo
Excerpt: as §1, §2

[7] = test system: diamondback moth, Plutella xylostella (DBM); assay: Injection assay of toxin in DBM larvae; format: in vivo
Excerpt: as §1, §2

[8] = test system: cabbage looper, Trichoplusia ni (CL); assay: Injection bioassay of whole venom and purified toxins in CL larvae; format: in vivo; details: T. ni (CL), log-probit analysis
Excerpt: as §1, §2

[9] = test system: tobacco budworm, Heliothis virescens (TBW); assay: Injection bioassay of whole venom and purified toxins in TBW larvae; format: in vivo; details: for LD50: H. virescens (TBW), log-probit analysis
Excerpt: The insects tested were last instar, laboratory reared larvae of the tobacco budworm, Heliothis virescens (TBW); the beet armyworm, Spodoptera exigua (BAW); the cabbage looper,Trichoplusia ni (CL); the corn earworm, Heliothis (Helicoverpa) zea (CEW); the fall armyworm, Spodoptera frugiperda (FAW); the soybean looper, Pseudoplusia includens (SBL); the European corn borer, Ostrinia nubilalis (ECB); and the diamondback moth, Plutella xylostella (DBM). Adult house flies, Musca domestica (HF) and adult Southern corn rootworm beetles, Diabrotica undecimpunctata (SRC) were also tested. The first six species (TBW, BAW, CL, CEW, FAW, and SBL) are in the family Noctuidae of the order Lepidoptera. O. nubilalis and P. xylostella are lepidopterans in the families Pyralidae and Plutellidae, respectively. M. domestica and D. undecimpunctata are in the orders Diptera and Coleoptera, respectively. All species tested are important pests in crop production except M. domestica which is a nuisance pest in agricultural and urban settings. All samples, whether whole venom or venom fractions, were prepared in filter-sterilized physiological saline, pH 6.5. Samples were administered by injection into the hemocoel at or near the lateral midline of the fourth abdominal segment; the needle was inserted at a shallow angle to avoid injury to internal organs. Whole venom doses were calculated in terms of WVE. One WVE is the amount of any material which is normally present in one microliter of whole milked venom. Doses of components from early fractionations were also calculated in terms of WVE; doses of purified toxins were calculated from ultraviolet absorbances at 280 nm. Scopes, Anal. Biochem., 59:277 (1974). Control insects were given an equivalent volume of buffered saline solution.
Full dose-response assays were carried out in TBW (n=6), BAW (n=6), CL (n=6) and SCR (n=5). Other species were challenged with one or both toxins in a two-dose assay for purposes of estimating the toxins' activities in a variety of insects. LD50 values were determined by log-probit analysis basic program for microcomputer. Raymond, Set. Ent. med et Parasitol., 22:117 (1985). The insecticidal Tegenaria toxins generally have quite steep dose-response curves; frequently there is less than a 10-fold difference between a 100% lethal dose and a dose causing no mortality. Because probit analysis requires two responses that are neither zero nor 100 percent, […] values in several cases had to be estimated rather than calculated directly. In every case, however, there was an obvious and statistically significant dose response.

[10] = test system: rat hippocampal preparation, the Schaffer collateral-CA 1 pyramidal cell synapse; assay: In vitro rat brain slice electrophysiology; format: cell-based; details: applied at 1 μm
Protocol: as §3

[11] = test system: house flies, Musca domestica (HF); assay: Injection bioassay of toxins in adult house flies; format: in vivo; details: M. domestica (HF), estimate from two-dose assay (100% and 30% mortality; control 10%)
Excerpt: as §1, §2

| Molecule | LD50 [1] [nmol/gm] | estimated LD50 [2] [nmol/gm] | effect of injection into the peritoneum (male Swiss-Webster mice; n=2) | effect of injection into the cerebral ventricles (male Swiss-Webster mice; n=3) | estimated LD50 [3] [nmol/gm] | estimated LD50 [4] [nmol/gm] | LD50 [5] [nmol/gm] | estimated LD50 [6] [nmol/gm] | treated larvae developing tremors, spasms and convulsions ([7]; 1.1 nmol/gm, within 24 hours) [%] | estimated LD50 ([7]; DBM larvae) [nmol/gm] | LD50 [8] [nmol/gm] | LD50 [9] [nmol/gm] | approximate LD50 ([9]; TBW, venom-derived toxin) [µg/g] | effect on evoked synaptic responses [10] | LD50 [11] [nmol/gm] | treated larvae paralyzed ([9]; 7.7 μg/g, TBW, n=6) [%] |
| --- | --- | --- | --- | --- | --- | --- | --- | --- | --- | --- | --- | --- | --- | --- | --- | --- |
| NPS-326 (EPDEICRARMTHKEFNYKSNVCNGCGDQVAACEAECFRNDVYTACHEAQK) | ~0.88 | 1.1 | no effect | no effect | 1.55 | 5.3 | ~2.0 | 0.8 | 90 | < 1.1 | 0.78 | 0.89 | ~5.7 | – | – | – |
| NPS-331 (EPDEICRARMTNKEFTYKSNVCNNCGDQVAACEAECFRNDVYTACHEAQK) | ~0.29 | 0.64 | – | – | 1.05 | 1.84 | 0.57 | 1 | – | – | 0.22 | 2.6 | – | without effect | ~0.7 | – |
| B1 | – | – | – | – | – | – | – | – | – | – | – | – | – | – | – | 50 |
